Measurements published in patent US11466044B2 (WAYNE STATE UNIVERSITY, priority 2017, dated 2022).
pIC50: −log10 of the molar value. ≈ marks a conversion by molar mass, not a printed value. Read-outs that look alike come from different tables or passages of the source.

Columns and labels:
[1] = system: Acinetobacter baumannii pittii AG225; experiment: MIC by broth microdilution, Acinetobacter baumannii; assay type: cell-based; details: strain AG225 Acinetobacter baumannii pittii
[2] = system: wild type bacterial ribosomes; experiment: in-vitro translation assay, bacterial ribosomes; assay type: biochemical
Text: (§1) The antiribosomal activity of these compounds was investigated with cell-free translation assays using both wild type bacterial ribosomes and hybrid ribosomes carrying eukaryotic decoding A sites enabling the prediction of selectivity.

[3] = system: E coli carrying specific resistance determinants; experiment: MIC by broth microdilution, E coli carrying specific resistance determinants; assay type: cell-based
[4] = system: mitochondrial ribosome (human chimeric); assay type: biochemical; details: for pIC50: mitochondrial, read-out: IC50 Mit
Text: as §1

NC[C@@H]1O[C@H](O[C@H]2[C@@H](O)[C@H](O[C@@H]3[C@@H](O)[C@H](N)C[C@H](N)[C@H]3O[C@H]3O[C@H](CN)[C@@H](O)[C@H](O)[C@H]3N)O[C@@H]2CO)[C@H](N)[C@@H](O)[C@@H]1O [neomycin, Neomycin B, reference compound]
MIC AG225 A. baumannii [1]: 1 to 2 µg/mL | pIC50 ([2]; Mycobacterium smegmatis ribosomes, read-out: IC50 Bacterial): 7.40 | pIC50 ([2]; bacterial ribosome, Table 3 (Example 1), read-out: IC50 Bac): 7.40 | pIC50 ([2]; bacterial ribosome, Table 3 (Example 2), read-out: IC50 Bac): 7.40 | pIC50 ([2]; bacterial ribosome, Table 4 (Example 3), read-out: IC50 Bac): 7.40 | MIC E. coli AAC(2′) AG106 ([3]; AAC(2′) AG106, Table 4 (Example 3)): 8 µg/mL (≈ 13 µM) | MIC E. coli AAC(2′) pH434 ([3]; AAC(2′) pH434, Table 4 (Example 3)): >64 μg/mL | MIC AAC(6′) ([3]; AAC(6′), Table 3 (Example 2)): 4 µg/mL (≈ 6.51 µM) | MIC50 E coli AG07 AAC(3) ([3]; AG07 AAC(3), Table 2A (Example 2)): 4 µg/mL (≈ 6.51 µM) | MIC50 E coli AG09 AAC(6′) ([3]; AG09 AAC(6′), Table 2A (Example 2)): 8 µg/mL (≈ 13 µM) | MIC50 E coli AG036 ANT(4′,4″) ([3]; Table 2A (Example 2)): 32 µg/mL (≈ 52.1 µM) | MIC50 E coli AG036 ANT(4′,4″) ([3]; Table 2B (Example 2)): 4 to 8 µg/mL | MIC50 E coli AG037 APH(3′)-III ([3]; AG037 APH(3′)-III, Table 2B (Example 2)): >64 µg/mL | MIC50 E coli AG037 APH(3′,5″) ([3]; AG037 APH(3′,5″), Table 2A (Example 2)): >256 µg/mL | MIC50 E coli AG103 armA ([3]; AG103 ArmA, Table 2A (Example 2)): 0.5 µg/mL (≈ 0.813 µM) | MIC50 E coli AG103 armA ([3]; AG103 armA, Table 2B (Example 2)): 0.25 to 0.5 µg/mL | MIC50 E coli AG105 AAC(2′) ([3]; AG105 AAC(2′), Table 2A (Example 2)): 2 µg/mL (≈ 3.25 µM) | MIC E. coli AG106 AAC(2′)-Ia ([3]; AG106 AAC(2′)-Ia, Table 5 (Example 3)): 8 µg/mL (≈ 13 µM) | MIC E coli AG106 AAC(2′) ([3]; AG106 AAC(2′), Table 2 (Example 3)): 8 µg/mL (≈ 13 µM) | MIC ANT(4′) ([3]; ANT(4′), Table 3 (Example 2)): 4 to 8 µg/mL | MIC APH(3)-VI ([3]; APH(3)-VI, Table 3 (Example 1)): 32 to 64 µg/mL | MIC APH(3′)-I ([3]; APH(3′)-I, Table 3 (Example 1)): >64 µg/mL | MIC APH(3′)-II ([3]; Table 3 (Example 1)): 64 µg/mL (≈ 104 µM) | MIC APH(3′)-II ([3]; Table 3 (Example 2)): 64 µg/mL (≈ 104 µM) | MIC APH(3′)-III ([3]; APH(3′)-III, Table 3 (Example 1)): >64 µg/mL | MIC APH(3′)-VI ([3]; APH(3′)-VI, Table 3 (Example 2)): 32 to 64 µg/mL | MIC AG036 ANT(4′,4′′) ([3]; E. coli strain AG036, ANT(4′,4′′)): 4 to 8 µg/mL | MIC AG037 APH(3′)-III ([3]; E. coli strain AG037, APH(3′)-III): >64 µg/mL | MIC AG103 armA ([3]; E. coli strain AG103, armA): 0.25 to 0.5 µg/mL | MIC pH414 AAC(6′)-I ([3]; E. coli strain pH414, AAC(6′)-I): 2 μg/ml | MIC pH415 AAC(6′)-II ([3]; E. coli strain pH415, AAC(6′)-II): 4 μg/ml | MIC pH421 APH(3)-I ([3]; E. coli strain pH421, APH(3)-I): >128 μg/ml | MIC pH422 APH(3′)-II ([3]; E. coli strain pH422, APH(3′)-II): 64 μg/ml | MIC pH423 APH(3′)-VI ([3]; E. coli strain pH423, APH(3′)-VI): 32-64 μg/ml | MIC pH432 ANT(4′) ([3]; E. coli strain pH432, ANT(4′)): 1 μg/ml | MIC AG003 E. coli AAC(3)-II ([3]; clinical isolate AG003, AAC(3)-II): 1 µg/mL (≈ 1.63 µM) | MIC AG163 E. coli APH(3′)-I ([3]; clinical isolate AG163 APH(3′)-I, Table 2 (Example 4)): >64 µg/mL | MIC AG166 E. coli APH(3′)-II ([3]; clinical isolate AG166 APH(3′)-II, Table 2 (Example 4)): 64 µg/mL (≈ 104 µM) | MIC AG037 E. coli APH(3′)-III ([3]; engineered strain AG037 APH(3′)-III, Table 2 (Example 4)): >64 µg/mL | MIC pH421 E. coli APH(3′)-I ([3]; engineered strain pH421 APH(3′)-I, Table 2 (Example 4)): >128 μg/ml | MIC pH422 E. coli APH(3′)-II ([3]; engineered strain pH422 APH(3′)-II, Table 2 (Example 4)): 64 μg/ml | MIC pH423 E. coli APH(3′)-VI ([3]; engineered strain pH423 APH(3′)-VI, Table 2 (Example 4)): 32-64 μg/ml | MIC E. coli pGB2armA armA ([3]; pGB2armA armA, Table 5 (Example 3)): 0.25-0.5 μg/ml | MIC50 E coli pH414 AAC(6′)-I ([3]; pH414 AAC(6′)-I, Table 2B (Example 2)): 2 μg/ml | MIC50 E coli pH415 AAC(6′)-II ([3]; pH415 AAC(6′)-II, Table 2B (Example 2)): 4 μg/ml | MIC50 E coli pH421 APH(3′)-I ([3]; pH421 APH(3′)-I, Table 2B (Example 2)): >128 μg/ml | MIC50 E coli pH422 APH(3′)-II ([3]; pH422 APH(3′)-II, Table 2B (Example 2)): 64 μg/ml | MIC50 E coli pH423 APH(3)-VI ([3]; pH423 APH(3)-VI, Table 2B (Example 2)): 32-64 μg/ml | MIC50 E coli pH432 ANT(4′) ([3]; pH432 ANT(4′), Table 2B (Example 2)): 1 μg/ml | MIC E. coli pH434 AAC(2′)-Ib ([3]; pH434 AAC(2′)-Ib, Table 5 (Example 3)): >64 μg/ml | pIC50 ([4]; Table 3 (Example 1)): 5.37 | pIC50 ([4]; Table 3 (Example 2)): 5.37 | pIC50 ([4]; Table 4 (Example 3)): 5.37 | Target specificity bacterial vs. Mitochondrial ([4]; relative target specificity, bacterial vs. human mitochondrial): low
